In patent publication US6160004A, “C-10 carbon-substituted artemisinin-like trioxane compounds having antimalarial, antiproliferative and antitumor activities” (priority 1998, dated 2000):
pIC50: −log10 of the molar value.

Assays:
[1] = test system: HL-60(TB); assay: cells; assay type: cell-based; conditions: Homo sapiens
[2] = test system: K-562; assay: cells; assay type: cell-based; conditions: Homo sapiens
[3] = test system: A549/ATCC; assay: NCI 60 cell line panel screening assay (SRB), A549/ATCC; assay type: cell-based; conditions: Homo sapiens, non-small cell lung cancer, 48 h, read-out: Log10 GI50 (converted)
[4] = test system: EKVX; assay: NCI 60 cell line panel screening assay (SRB), EKVX; assay type: cell-based; conditions: Homo sapiens, non-small cell lung cancer, 48 h, read-out: Log10 GI50 (converted)
[5] = test system: NCI-H23; assay: cells; assay type: cell-based; conditions: Homo sapiens; NCI-H23, non-small cell lung cancer, 48 h; read-out: Log10 GI50 (converted)
[6] = test system: NCI-H460; assay: cells; assay type: cell-based; conditions: Homo sapiens; NCI-H460, non-small cell lung cancer, 48 h; read-out: Log10 GI50 (converted)
[7] = test system: NCI-H522; assay: cells; assay type: cell-based; conditions: Homo sapiens
[8] = test system: HCT-116; assay: cells; assay type: cell-based; conditions: Homo sapiens, HCT-116, 48 h
[9] = test system: HCT-15; assay: cells; assay type: cell-based; conditions: Homo sapiens, HCT-15, colon cancer, 48 h
[10] = test system: HT29; assay: cells; assay type: cell-based; conditions: Homo sapiens, HT-29, HT29, colon cancer, 48 h
[11] = test system: SW-620; assay: NCI 60 cell line panel screening assay (SRB), SW-620; assay type: cell-based; conditions: Homo sapiens
[12] = test system: SF-295; assay: cells; assay type: cell-based; conditions: Homo sapiens, SF-295, CNS cancer, 48 h
[13] = test system: SF-539; assay: cells; assay type: cell-based; conditions: Homo sapiens, SF-539, CNS cancer, 48 h
[14] = test system: LOX IMVI; assay: cells; assay type: cell-based; conditions: Homo sapiens, melanoma, 48 h
[15] = test system: MALME-3M; assay: cells; assay type: cell-based; conditions: Homo sapiens, 48 h
[16] = test system: SK-MEL-2; assay: cells; assay type: cell-based; conditions: Homo sapiens, SK-MEL-2, melanoma, 48 h
[17] = test system: UACC-62; assay: cells; assay type: cell-based; conditions: Homo sapiens
[18] = test system: OVCAR-4; assay: cells; assay type: cell-based; conditions: Homo sapiens
[19] = test system: OVCAR-8; assay: cells; assay type: cell-based; conditions: Homo sapiens
[20] = test system: ACHN; assay: NCI 60 cell line panel screening assay (SRB), ACHN; assay type: cell-based; conditions: Homo sapiens, renal cancer, 48 h
[21] = test system: CAKI-1; assay: NCI 60 cell line panel screening assay (SRB), CAKI-1; assay type: cell-based; conditions: Homo sapiens
[22] = test system: UO-31; assay: NCI 60 cell line panel screening assay (SRB), UO-31; assay type: cell-based; conditions: Homo sapiens, UO-31, renal cancer, 48 h
[23] = test system: DU-145; assay: cells; assay type: cell-based; conditions: Homo sapiens, DU-145, 48 h
[24] = test system: MCF7/ADR-RES; assay: cells; assay type: cell-based; conditions: Homo sapiens, MCF7/ADR-RES, breast cancer, 48 h
[25] = test system: MDA-MB231/ATCC; assay: cells; assay type: cell-based; conditions: Homo sapiens, MDA-MB-231, breast cancer, 48 h
[26] = test system: HS 578T; assay: cells; assay type: cell-based; conditions: Homo sapiens, HS 578T, breast cancer, 48 h
[27] = test system: MDA-MB435; assay: NCI 60 cell line panel screening assay (SRB), MDA-MB435; assay type: cell-based; conditions: Homo sapiens
[28] = test system: MDA-N; assay: NCI 60 cell line panel screening assay (SRB), MDA-N; assay type: cell-based; conditions: Homo sapiens, breast cancer, 48 h, read-out: Log10 GI50 (converted)
[29] = test system: chloroquine-sensitive P. falciparum (NF54); assay: In vitro antimalarial activity ([3H]hypoxanthine incorporation); assay type: cell-based
[30] = test system: MOLT-4; conditions: MOLT-4, FIG. 6
[31] = read-out: Log10 GI50 (converted)
[32] = read-out: Log10 LC50 (converted)

With CC1CCC2C(C)C(CC(=O)c3cccc(C(=O)CC4OC5OC6(C)CCC7C(C)CCC(C4C)C57OO6)c3)OC3OC4(C)CCC1C32OO4 (centres unmarked) [Dimer 39] the CC50 ([1]; HL-60, 48 h, read-out: Log10 LC50 (converted)) was > 100 µM, the GI50 ([1]; HL-60(TB), leukemia, 48 h, read-out: Log10 GI50 (converted)) was > 100 µM and the IC (TGI) ([1]; HL-60(TB), leukemia, 48 h, read-out: Log10 TGI) was > 100 µM. The CC50 ([2]; K562, 48 h, read-out: Log10 LC50 (converted)) was > 100 µM, the GI50 ([2]; K562, K-562, leukemia, 48 h, read-out: Log10 GI50 (converted)) was > 100 µM and the GI50 [3] was > 100 µM. For the same compound, the GI50 [4] was > 100 µM, the GI50 [5] was > 100 µM and the GI50 [6] was > 100 µM. For the same compound, the CC50 ([7]; NCI-H522, 48 h, read-out: Log10 LC50 (converted)) was > 100 µM, the GI50 ([7]; NCI-H522, non-small cell lung cancer, 48 h, read-out: Log10 GI50 (converted)) was > 100 µM and the GI50 [8, 31] was > 100 µM. For the same compound, the CC50 [8, 32] was > 100 µM, the GI50 [9, 31] was > 100 µM and the CC50 [9, 32] was > 100 µM. The GI50 [10, 31] was > 100 µM, the CC50 [10, 32] was > 100 µM and the GI50 ([11]; SW-620, 48 h, read-out: Log10 GI50 (converted)) was > 100 µM. The CC50 ([11]; SW-620, colon cancer, 48 h, read-out: Log10 LC50 (converted)) was > 100 µM, the IC (TGI) ([11]; SW-620, colon cancer, 48 h, read-out: Log10 TGI) was > 100 µM and the GI50 [12, 31] was > 100 µM. For the same compound, the CC50 [12, 32] was > 100 µM, the GI50 [13, 31] was > 100 µM and the CC50 [13, 32] was > 100 µM. The GI50 [14, 31] was > 100 µM, the CC50 [14, 32] was > 100 µM and the IC (TGI) ([14]; read-out: Log10 TGI (converted)) was > 100 µM. The IC (TGI) ([15]; Malme-3M, read-out: Log10 TGI) was > 100 µM, the GI50 ([15]; MALME-3M, melanoma, read-out: Log10 GI50 (converted)) was > 100 µM and the LC50 (50% lethal concentration) ([15]; MALME-3M, melanoma, read-out: Log10 LC50 (converted)) was > 100 µM. For the same compound, the GI50 [16, 31] was > 100 µM, the CC50 [16, 32] was > 100 µM and the IC (TGI) ([16]; read-out: Log10 TGI) was > 100 µM. The IC (TGI) ([17]; UACC-62, 48 h, read-out: Log10 TGI) was > 100 µM, the GI50 ([17]; UACC-62, melanoma, 48 h, read-out: Log10 GI50 (converted)) was > 100 µM and the LC50 ([17]; UACC-62, melanoma, 48 h, read-out: Log10 LC50 (converted)) was > 100 µM. For the same compound, the IC (TGI) ([18]; OVCAR-4, 48 h, read-out: Log10 TGI) was > 100 µM, the GI50 ([18]; OVCAR-4, ovarian cancer, 48 h, read-out: Log10 GI50 (converted)) was > 100 µM and the CC50 ([18]; OVCAR-4, ovarian cancer, 48 h, read-out: Log10 LC50 (converted)) was > 100 µM. For the same compound, the IC (TGI) ([19]; OVCAR-8, 48 h, read-out: Log10 TGI) was > 100 µM, the GI50 ([19]; OVCAR-8, ovarian cancer, 48 h, read-out: Log10 GI50 (converted)) was > 100 µM and the CC50 ([19]; OVCAR-8, ovarian cancer, 48 h, read-out: Log10 LC50 (converted)) was > 100 µM. For the same compound, the GI50 [20, 31] was > 100 µM, the IC (TGI) ([20]; read-out: Log10 TGI) was > 100 µM and the CC50 ([21]; CAKI-1, 48 h, read-out: Log10 LC50 (converted)) was > 100 µM. For the same compound, the GI50 ([21]; CAKI-1, renal cancer, 48 h, read-out: Log10 GI50 (converted)) was > 100 µM, the IC (TGI) ([21]; CAKI-1, renal cancer, 48 h, read-out: Log10 TGI (converted)) was > 100 µM and the GI50 [22, 31] was > 100 µM. The CC50 [22, 32] was > 100 µM, the IC (TGI) ([22]; read-out: Log10 TGI) was > 100 µM and the GI50 [23, 31] was > 100 µM. For the same compound, the CC50 [23, 32] was > 100 µM, the IC (TGI) ([23]; read-out: Log10 TGI) was > 100 µM and the GI50 [24, 31] was > 100 µM. For the same compound, the CC50 [24, 32] was > 100 µM, the GI50 [25, 31] was > 100 µM and the CC50 [25, 32] was > 100 µM. For the same compound, the GI50 [26, 31] was > 100 µM, the CC50 [26, 32] was > 100 µM and the CC50 ([27]; MDA-MB-435, 48 h, read-out: Log10 LC50 (converted)) was > 100 µM. The GI50 ([27]; MDA-MB-435, printed MDA-MBA35, breast cancer, 48 h, read-out: Log10 GI50 (converted)) was > 100 µM, the GI50 [28] was > 100 µM and the “in vitro antimalarial potency relative to artemisinin” value ([29]; P. falciparum NF54) was “more potent than artemisinin”. The pIC50 ([29]; Plasmodium falciparum, chloroquine-sensitive P. falciparum NF54, in vitro) was 8.72 and the “concentration for cytostasis (PG 0)” value [30] was “greater than 10^-4 M”.
